In ChEMBL document CHEMBL5465560, “Selectivity Literature for EUbOPEN Chemogenomic Library” (2024):
Values belong to the molecule of their own block, whether it stands above or below them.

Assays:
[1] = target: Bone morphogenetic protein receptor type-1B (Homo sapiens, UniProt O00238); experiment: Selectivity interaction (KinomeScan (DiscoverX)) EUB0000607a BMPR1B; conditions: at 10 µM
[2] = target: T1, Serine/threonine-protein kinase D2 (Homo sapiens) (UniProt Q9BZL6); experiment: Selectivity interaction (ActivX KiNativ screen (kinase selectivity in THP-1 cell lysates)) EUB0000639a PRKD2; format: subcellular; conditions: lysate, at 0.01 µM
T1 sequence (whole entry): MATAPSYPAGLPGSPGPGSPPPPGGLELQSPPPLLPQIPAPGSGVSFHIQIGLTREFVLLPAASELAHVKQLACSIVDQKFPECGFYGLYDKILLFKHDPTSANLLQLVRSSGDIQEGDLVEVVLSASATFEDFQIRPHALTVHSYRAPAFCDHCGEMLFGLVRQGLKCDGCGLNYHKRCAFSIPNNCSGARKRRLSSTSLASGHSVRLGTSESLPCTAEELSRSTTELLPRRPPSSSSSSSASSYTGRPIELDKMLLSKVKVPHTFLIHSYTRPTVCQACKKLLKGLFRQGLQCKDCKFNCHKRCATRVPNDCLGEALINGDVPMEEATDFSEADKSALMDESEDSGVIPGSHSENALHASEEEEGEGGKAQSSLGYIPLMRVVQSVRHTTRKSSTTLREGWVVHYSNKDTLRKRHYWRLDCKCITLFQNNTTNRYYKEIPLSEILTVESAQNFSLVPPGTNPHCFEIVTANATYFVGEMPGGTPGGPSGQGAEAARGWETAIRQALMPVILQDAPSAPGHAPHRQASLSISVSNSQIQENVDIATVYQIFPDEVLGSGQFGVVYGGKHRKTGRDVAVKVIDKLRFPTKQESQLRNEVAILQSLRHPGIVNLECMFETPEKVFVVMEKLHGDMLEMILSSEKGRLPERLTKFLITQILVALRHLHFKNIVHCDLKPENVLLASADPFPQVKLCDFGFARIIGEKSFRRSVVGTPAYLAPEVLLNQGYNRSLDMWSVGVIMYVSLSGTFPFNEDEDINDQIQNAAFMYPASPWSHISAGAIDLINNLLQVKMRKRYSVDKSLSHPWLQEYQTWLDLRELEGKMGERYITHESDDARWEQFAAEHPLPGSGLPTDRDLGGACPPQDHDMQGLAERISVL

[3] = target: Ribosomal protein S6 kinase alpha-3 (Homo sapiens, UniProt P51812); experiment: Selectivity interaction (ActivX KiNativ screen (kinase selectivity in THP-1 cell lysates)) EUB0000639a RPS6KA3; format: subcellular; conditions: lysate, at 5 µM
Chain of Ribosomal protein S6 kinase alpha-3 (P51812 whole entry): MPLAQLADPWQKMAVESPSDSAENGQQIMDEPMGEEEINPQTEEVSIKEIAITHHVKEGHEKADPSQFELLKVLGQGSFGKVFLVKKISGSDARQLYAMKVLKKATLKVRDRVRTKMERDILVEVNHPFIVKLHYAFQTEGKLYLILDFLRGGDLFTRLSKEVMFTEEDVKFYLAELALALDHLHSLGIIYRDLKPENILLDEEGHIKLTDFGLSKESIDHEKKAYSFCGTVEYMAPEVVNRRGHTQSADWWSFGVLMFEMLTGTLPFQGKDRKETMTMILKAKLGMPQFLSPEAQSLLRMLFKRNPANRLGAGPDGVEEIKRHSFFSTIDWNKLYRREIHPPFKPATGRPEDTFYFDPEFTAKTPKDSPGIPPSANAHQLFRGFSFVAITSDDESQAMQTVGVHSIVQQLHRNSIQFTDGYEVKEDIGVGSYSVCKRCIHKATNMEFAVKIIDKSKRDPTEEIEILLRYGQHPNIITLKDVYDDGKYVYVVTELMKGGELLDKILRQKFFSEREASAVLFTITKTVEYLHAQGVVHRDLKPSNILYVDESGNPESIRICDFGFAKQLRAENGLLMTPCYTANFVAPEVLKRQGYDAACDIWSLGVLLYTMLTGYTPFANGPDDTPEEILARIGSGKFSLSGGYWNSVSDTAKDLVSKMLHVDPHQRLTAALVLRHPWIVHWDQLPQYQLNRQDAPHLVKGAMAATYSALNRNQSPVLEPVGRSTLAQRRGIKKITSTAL

[4] = target: Serine/threonine-protein kinase PAK 2 (Homo sapiens) (UniProt Q13177); experiment: Selectivity interaction (KinomeScan (DiscoverX)) EUB0000595a PAK2; conditions: at 10 µM
Chain of Serine/threonine-protein kinase PAK 2 (Homo sapiens) (Q13177 whole entry): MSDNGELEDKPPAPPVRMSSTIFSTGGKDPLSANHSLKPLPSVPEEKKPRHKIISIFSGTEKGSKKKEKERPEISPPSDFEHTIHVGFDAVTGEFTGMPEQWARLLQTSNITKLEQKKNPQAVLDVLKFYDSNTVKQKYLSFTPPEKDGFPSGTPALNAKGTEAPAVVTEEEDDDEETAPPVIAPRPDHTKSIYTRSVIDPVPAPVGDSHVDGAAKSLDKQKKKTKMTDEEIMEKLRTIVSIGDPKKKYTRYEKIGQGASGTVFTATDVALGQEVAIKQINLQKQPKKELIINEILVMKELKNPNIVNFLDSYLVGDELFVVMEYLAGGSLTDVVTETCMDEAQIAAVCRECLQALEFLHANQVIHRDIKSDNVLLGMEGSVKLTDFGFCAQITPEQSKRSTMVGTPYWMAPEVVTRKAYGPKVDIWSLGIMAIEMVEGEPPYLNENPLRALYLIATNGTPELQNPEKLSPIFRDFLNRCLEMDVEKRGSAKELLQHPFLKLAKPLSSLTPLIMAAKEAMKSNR

[5] = target: Non-receptor tyrosine-protein kinase TYK2 (Homo sapiens, UniProt P29597); experiment: Selectivity interaction (KinomeScan (DiscoverX)) EUB0001049a TYK2; conditions: at 1 µM
Chain of Non-receptor tyrosine-protein kinase TYK2 (P29597 whole entry): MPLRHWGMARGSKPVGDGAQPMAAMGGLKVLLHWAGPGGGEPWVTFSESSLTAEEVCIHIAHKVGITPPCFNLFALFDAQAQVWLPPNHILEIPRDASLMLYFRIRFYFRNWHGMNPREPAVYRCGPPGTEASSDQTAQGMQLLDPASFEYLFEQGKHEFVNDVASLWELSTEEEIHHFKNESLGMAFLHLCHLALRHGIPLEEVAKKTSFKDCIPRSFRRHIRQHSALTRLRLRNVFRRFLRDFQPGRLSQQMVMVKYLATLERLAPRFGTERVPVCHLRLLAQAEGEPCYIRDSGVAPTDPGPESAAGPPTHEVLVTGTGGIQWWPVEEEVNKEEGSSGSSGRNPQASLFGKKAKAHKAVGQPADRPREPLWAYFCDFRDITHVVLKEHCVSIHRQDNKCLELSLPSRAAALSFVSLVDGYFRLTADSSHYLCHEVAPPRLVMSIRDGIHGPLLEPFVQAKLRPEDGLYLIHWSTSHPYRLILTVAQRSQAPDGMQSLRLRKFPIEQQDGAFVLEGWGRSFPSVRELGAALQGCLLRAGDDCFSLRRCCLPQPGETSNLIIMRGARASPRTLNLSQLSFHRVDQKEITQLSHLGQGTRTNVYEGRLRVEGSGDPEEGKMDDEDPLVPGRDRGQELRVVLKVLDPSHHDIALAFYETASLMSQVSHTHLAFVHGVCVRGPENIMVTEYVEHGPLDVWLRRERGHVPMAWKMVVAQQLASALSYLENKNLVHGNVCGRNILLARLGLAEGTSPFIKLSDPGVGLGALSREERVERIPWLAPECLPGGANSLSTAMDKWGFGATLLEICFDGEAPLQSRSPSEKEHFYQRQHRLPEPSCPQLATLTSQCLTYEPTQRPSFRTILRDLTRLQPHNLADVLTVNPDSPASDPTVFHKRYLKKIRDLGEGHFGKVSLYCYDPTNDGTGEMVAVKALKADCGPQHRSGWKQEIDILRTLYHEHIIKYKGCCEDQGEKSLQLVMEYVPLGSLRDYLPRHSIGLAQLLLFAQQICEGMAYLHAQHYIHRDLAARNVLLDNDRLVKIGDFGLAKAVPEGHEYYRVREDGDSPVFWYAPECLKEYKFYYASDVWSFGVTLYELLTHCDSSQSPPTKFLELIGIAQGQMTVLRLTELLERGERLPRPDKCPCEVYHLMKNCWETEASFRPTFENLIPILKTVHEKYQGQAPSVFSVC

[6] = target: Mitogen-activated protein kinase 8 (Homo sapiens, UniProt P45983); experiment: Selectivity interaction (Ambit KINOMEscan and KiNATiv profiling in Jurkat cells) EUB0000090b MAPK8; format: cell-based; conditions: at 1 µM
Chain of Mitogen-activated protein kinase 8 (P45983 whole entry): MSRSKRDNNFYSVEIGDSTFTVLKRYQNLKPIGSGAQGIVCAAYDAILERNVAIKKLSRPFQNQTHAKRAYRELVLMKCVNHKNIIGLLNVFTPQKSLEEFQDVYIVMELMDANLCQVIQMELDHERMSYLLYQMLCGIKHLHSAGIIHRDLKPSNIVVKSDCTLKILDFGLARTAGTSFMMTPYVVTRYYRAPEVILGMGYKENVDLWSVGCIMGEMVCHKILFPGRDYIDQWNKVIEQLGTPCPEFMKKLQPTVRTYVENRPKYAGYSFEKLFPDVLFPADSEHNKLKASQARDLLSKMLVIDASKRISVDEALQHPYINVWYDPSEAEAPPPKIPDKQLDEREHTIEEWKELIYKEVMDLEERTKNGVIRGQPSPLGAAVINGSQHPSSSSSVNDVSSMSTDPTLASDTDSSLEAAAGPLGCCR

[7] = target: T2, Serine/threonine-protein kinase LATS2 (Homo sapiens) (UniProt Q9NRM7); experiment: Selectivity interaction (Ambit KINOMEscan and KiNATiv profiling in Jurkat cells) EUB0000090b LATS2; format: cell-based; conditions: at 1 µM
T2 sequence (whole entry): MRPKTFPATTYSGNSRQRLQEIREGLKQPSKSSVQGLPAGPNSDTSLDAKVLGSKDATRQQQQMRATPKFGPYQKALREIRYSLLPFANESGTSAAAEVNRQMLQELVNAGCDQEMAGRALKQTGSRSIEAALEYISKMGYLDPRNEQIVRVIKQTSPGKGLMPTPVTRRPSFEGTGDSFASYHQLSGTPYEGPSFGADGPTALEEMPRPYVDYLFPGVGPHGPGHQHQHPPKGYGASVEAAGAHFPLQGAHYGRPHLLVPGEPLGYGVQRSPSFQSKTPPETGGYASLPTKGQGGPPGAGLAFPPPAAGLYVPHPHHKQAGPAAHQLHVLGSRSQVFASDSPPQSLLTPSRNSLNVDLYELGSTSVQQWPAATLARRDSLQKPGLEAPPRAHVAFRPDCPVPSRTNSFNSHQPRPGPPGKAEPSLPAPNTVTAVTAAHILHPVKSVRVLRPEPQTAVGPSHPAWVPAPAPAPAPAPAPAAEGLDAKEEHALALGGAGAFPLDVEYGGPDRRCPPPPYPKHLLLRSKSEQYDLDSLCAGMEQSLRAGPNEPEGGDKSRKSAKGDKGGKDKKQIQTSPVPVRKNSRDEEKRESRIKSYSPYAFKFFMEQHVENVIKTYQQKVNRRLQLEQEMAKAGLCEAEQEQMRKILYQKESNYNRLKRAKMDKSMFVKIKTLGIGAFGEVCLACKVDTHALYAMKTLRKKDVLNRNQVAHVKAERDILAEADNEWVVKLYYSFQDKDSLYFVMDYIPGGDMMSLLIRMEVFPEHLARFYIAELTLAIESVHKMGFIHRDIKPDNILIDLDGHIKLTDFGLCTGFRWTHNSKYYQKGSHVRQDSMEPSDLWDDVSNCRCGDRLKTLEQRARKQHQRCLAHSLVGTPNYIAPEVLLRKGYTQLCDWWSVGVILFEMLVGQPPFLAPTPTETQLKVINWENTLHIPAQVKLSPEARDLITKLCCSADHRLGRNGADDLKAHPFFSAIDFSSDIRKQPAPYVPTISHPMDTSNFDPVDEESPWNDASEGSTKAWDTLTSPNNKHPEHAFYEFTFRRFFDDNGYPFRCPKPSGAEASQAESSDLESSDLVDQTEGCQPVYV

[8] = target: Myosin light chain kinase 2, skeletal/cardiac muscle (Homo sapiens) (UniProt Q9H1R3); experiment: Selectivity interaction (KinomeScan (DiscoverX)) EUB0000655a MYLK2; conditions: at 10 µM
Chain of Myosin light chain kinase 2, skeletal/cardiac muscle (Homo sapiens) (Q9H1R3 whole entry): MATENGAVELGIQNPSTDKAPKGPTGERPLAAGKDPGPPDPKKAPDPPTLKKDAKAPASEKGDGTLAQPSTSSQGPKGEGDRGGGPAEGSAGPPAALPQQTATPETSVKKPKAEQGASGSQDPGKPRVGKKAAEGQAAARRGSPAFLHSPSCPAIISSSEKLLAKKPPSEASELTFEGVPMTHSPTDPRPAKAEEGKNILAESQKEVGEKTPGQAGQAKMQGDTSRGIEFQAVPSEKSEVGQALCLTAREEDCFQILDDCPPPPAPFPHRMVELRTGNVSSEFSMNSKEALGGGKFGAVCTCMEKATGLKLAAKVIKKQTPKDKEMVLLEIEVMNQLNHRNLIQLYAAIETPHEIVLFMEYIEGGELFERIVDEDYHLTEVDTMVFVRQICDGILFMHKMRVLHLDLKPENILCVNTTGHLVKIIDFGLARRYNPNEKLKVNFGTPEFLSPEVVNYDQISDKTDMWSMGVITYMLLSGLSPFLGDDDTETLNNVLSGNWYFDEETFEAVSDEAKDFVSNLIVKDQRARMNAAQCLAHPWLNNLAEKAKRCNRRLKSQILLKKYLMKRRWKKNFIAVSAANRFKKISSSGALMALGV

[9] = Selectivity interaction (Kinase panel (Enzyme activity assay)) EUB0000612a IGF1
[10] = target: Activin receptor type-2B (Homo sapiens) (UniProt Q13705); experiment: Selectivity interaction (KinomeScan (DiscoverX)) EUB0001079a ACVR2B; conditions: at 1 µM
[11] = target: MAP/microtubule affinity-regulating kinase 3 (Homo sapiens) (UniProt P27448); experiment: Selectivity interaction (KinomeScan (DiscoverX)) EUB0000092b MARK3; conditions: at 10 µM
Chain of MAP/microtubule affinity-regulating kinase 3 (Homo sapiens) (P27448 whole entry, looked up): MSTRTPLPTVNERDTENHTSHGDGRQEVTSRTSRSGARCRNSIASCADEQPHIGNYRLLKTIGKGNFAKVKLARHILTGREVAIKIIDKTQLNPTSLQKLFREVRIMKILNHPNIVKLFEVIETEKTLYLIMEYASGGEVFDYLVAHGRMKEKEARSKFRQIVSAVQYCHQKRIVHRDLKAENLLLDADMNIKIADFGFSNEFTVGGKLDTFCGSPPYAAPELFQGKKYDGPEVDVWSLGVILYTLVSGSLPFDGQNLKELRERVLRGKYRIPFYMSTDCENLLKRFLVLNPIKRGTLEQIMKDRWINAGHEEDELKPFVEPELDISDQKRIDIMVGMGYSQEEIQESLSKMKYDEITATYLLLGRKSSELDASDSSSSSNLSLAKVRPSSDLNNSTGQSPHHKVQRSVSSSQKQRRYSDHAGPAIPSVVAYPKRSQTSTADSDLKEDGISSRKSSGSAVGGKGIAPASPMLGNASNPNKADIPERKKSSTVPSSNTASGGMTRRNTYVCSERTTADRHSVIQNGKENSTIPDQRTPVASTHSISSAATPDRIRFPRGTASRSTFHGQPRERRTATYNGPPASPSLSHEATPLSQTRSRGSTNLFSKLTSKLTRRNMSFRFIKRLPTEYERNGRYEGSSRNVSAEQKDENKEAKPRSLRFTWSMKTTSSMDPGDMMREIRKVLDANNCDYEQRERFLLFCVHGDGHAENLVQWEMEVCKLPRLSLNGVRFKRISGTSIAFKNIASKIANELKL

[12] = target: Wee1-like protein kinase 2 (Homo sapiens) (UniProt P0C1S8); experiment: Selectivity interaction (KinomeScan (DiscoverX)) EUB0001619a WEE2; conditions: at 1 µM
Chain of Wee1-like protein kinase 2 (Homo sapiens) (P0C1S8 whole entry, looked up): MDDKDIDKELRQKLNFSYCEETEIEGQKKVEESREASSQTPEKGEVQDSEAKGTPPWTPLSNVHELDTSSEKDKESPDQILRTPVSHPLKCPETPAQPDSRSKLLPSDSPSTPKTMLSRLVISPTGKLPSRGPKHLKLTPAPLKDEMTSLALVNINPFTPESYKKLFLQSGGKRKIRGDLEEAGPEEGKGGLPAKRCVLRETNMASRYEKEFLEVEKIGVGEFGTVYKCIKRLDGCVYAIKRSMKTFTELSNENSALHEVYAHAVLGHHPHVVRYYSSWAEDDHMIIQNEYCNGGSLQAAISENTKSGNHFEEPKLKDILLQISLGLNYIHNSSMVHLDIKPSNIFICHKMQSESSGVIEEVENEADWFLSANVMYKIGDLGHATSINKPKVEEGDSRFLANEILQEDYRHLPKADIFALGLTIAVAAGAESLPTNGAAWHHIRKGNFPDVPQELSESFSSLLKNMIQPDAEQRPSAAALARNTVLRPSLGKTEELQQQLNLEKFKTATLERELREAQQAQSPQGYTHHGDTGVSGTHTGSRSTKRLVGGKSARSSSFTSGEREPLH

Structure (SMILES): CNC(=O)Nc1ccc(-c2nc(N3CC4CCC(C3)O4)c3cnn(C4CCC5(CC4)OCCO5)c3n2)cc1
% of control [1]: 93%

% of inhibition [2]: -7.2%
% of inhibition [3]: 2.9%
Structure (SMILES): CC[C@@H]1[C@H](F)C(=O)N[C@@H]1COc1nccc2cc(C(N)=O)c(OC)cc12 [ZIMLOVISERTIB]

Structure (SMILES): COCC(=O)NC/C=C/c1ccc2ncnc(Nc3ccc(Oc4ccc(C)nc4)c(C)c3)c2c1 [CP-724714]
% of control [4]: 87%

Structure (SMILES): COc1cc(Nc2nc(C)cc(-c3cnn4nc(OC)ccc34)n2)cc(C(F)(F)F)c1
% of control [5]: 61%

Structure (SMILES): CN(C)C/C=C/C(=O)Nc1ccc(C(=O)N2CCCC(Nc3ncc(Cl)c(-c4c[nH]c5ccccc45)n3)C2)cc1 (configuration not stated)
% of control [6]: 0.95%
% of control [7]: 100%

Structure (SMILES): CN(C)CCOc1ccc(-c2nc(-c3ccncc3)c(-c3ccc4c(c3)CC/C4=N\O)[nH]2)cc1
% of control [8]: 100%

IC50 [9]: > 10 µM
Structure (SMILES): CCc1cccc(CC)c1NC(=O)c1nn(C)c2c1CCc1cnc(Nc3ccc(C(=O)NC4CCN(C)CC4)cc3OC(F)(F)F)nc1-2

Structure (SMILES): Nc1cnc(N2CCc3cc(S(=O)(=O)Nc4c(F)cc(Cl)cc4F)cc(N4CCCC4=O)c32)nc1 [TP-020n]
% of control [10]: 80%

Structure (SMILES): CCC(=O)N1CCN(c2ccc(-n3c(=O)ccc4cnc5ccc(-c6cnc7ccccc7c6)cc5c43)cc2C(F)(F)F)CC1
% of control [11]: 100%

Structure (SMILES): N#Cc1cccc(-c2c[nH]c3ncnc(N4CCOCC4)c23)c1
% of control [12]: 96%
